Reference: patent US8476233B2, “Methods for treatment for ulcerative colitis in mammals” (Therapeutic Research, LLC, priority 2003, dated 2013)
Read-outs that look alike come from different tables or passages of the source.

How the values were obtained:
[1] = tested on: glutathione peroxidase (GPx); settings: cited from earlier work
colonic mucosa = settings: rats, 3% solution, cited from earlier work
[2] = tested on: mitochondrial electron transport chain (whole chain respiration); settings: same study as cigarette tar; cited from earlier work
ulcerative colitis = assay: Example 3: patient's response to earlier therapies; type: in vivo, human; settings: patient history before the treatment of the invention
Excerpt: The recurrences occurred every 3-5 months.

## N[C@@H](CCS)C(=O)O [Homocysteine, homocysteine]
[1]; Outinen et al., 1999
  inhibition of glutathione peroxidase (GPx) activity: 10 fold
[1]; physiologic concentration, Chen, 2000
  concentration of free homocysteine at which inhibition of GPx occurs: 9 µmol/L

## OO [hydrogen peroxide]
Colonic mucosa; 5 hours after injection
  extent of mucosal inflammation above the anus: 5 cm
Colonic mucosa; by one week
  extent of mucosal inflammation above the anus: 9 cm
Colonic mucosa; rectal injection
  colonic outcome of rectal injection: acute and chronic ulcerative colitis

## CN1CCCC1c1cccnc1 (stereo not shown) [nicotine]
[2]
  effect on electron transport activity: no effect

## C[C@]12C=CC(=O)C=C1CC[C@@H]1[C@@H]2C(=O)C[C@@]2(C)[C@H]1CC[C@]2(O)C(=O)CO [prednisone]
Ulcerative colitis
  clinical response of ulcerative colitis episodes to earlier therapy: improved for a few months
